Measured values taken from publication PMC11956017, “Design of Benzyl-triazolopyrimidine-Based NADPH Oxidase Inhibitors Leads to the Discovery of a Potent Dual Covalent NOX2/MAOB Inhibitor” (Journal of Medicinal Chemistry, 2025).

Legend:
Type in all cases: biochemical
human NOX4 = target: T1, human NOX4 (Homo sapiens, UniProt Q9NPH5); experiment: Human NOX4 isolated membranes, Amplex Red/horseradish peroxidase coupled assay; conditions: membrane-embedded; 40 μM NADPH; read-out: IC50 on human NOXs, NOX4 (AMPLEX RED)
T1 construct: expressed in transfected cells; host or cells: HEK293 F cells, transient transfection (pTT22 and pYD7 vectors); isolated membranes
T1 sequence (Q9NPH5 1-578): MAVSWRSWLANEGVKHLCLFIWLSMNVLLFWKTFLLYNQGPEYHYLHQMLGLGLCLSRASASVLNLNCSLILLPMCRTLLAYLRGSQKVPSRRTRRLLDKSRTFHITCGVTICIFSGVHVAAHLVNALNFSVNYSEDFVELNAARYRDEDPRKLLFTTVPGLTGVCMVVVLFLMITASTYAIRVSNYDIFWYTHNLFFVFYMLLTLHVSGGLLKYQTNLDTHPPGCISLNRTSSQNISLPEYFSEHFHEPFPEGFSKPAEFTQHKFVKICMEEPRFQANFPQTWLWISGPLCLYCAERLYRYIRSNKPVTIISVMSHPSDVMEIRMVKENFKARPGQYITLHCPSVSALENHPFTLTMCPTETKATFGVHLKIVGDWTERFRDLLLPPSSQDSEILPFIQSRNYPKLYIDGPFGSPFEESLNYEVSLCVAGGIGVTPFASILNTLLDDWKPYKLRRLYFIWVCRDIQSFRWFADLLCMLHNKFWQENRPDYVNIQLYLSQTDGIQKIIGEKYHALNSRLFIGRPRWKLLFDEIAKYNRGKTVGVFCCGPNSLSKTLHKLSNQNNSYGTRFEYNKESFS
T1 sequence (P13498 1-195 partner): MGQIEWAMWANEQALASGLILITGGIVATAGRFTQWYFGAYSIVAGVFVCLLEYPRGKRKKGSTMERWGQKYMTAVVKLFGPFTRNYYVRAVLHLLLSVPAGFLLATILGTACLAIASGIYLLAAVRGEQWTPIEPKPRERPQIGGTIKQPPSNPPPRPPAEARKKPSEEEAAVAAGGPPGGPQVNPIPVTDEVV
Method: (§1) Activity assays for IC50 determinations were performed as previously described[40],[42] with modifications for covalent inhibitors. […] The estimated final protein concentrations based on the heme’s absorbance (ε414 nm = 131,000 M^–1 cm^–1) were 10–20 nM. Compounds were incubated for 1 h at 25 °C at varying concentrations, and reactions were initiated with 40 μM NADPH. Fluorescence was measured using a ClarioStar plate reader (excitation 572 nm/emission 583 nm).

human NOX1 = target: T2, human NOX1 (Homo sapiens, UniProt Q9Y5S8); experiment: Human NOX1 isolated membranes, Amplex Red/horseradish peroxidase coupled assay; conditions: membrane-embedded, 40 μM NADPH; for IC50: read-out: IC50 on human NOXs, NOX1 (AMPLEX RED)
T2 construct: expressed in transfected cells; host or cells: HEK293 F cells, transient transfection (pEG BacMam vector); isolated membranes; Cytosolic proteins made in E. coli
T2 sequence (Q9Y5S8 1-564): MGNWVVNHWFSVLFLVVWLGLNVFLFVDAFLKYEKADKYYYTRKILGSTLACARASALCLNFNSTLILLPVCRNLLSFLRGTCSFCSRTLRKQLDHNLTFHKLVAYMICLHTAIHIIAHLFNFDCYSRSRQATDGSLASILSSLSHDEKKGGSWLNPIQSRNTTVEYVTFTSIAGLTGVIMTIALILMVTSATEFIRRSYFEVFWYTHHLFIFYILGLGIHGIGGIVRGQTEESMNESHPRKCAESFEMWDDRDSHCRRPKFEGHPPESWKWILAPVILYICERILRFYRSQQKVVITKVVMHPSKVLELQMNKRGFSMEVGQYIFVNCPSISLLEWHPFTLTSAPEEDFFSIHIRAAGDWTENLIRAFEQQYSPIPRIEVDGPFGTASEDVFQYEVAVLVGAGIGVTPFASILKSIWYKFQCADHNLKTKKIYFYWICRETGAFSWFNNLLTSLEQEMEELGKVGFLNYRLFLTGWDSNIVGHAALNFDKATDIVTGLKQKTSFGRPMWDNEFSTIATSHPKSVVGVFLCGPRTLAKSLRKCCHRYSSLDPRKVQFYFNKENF
T2 sequence (P13498 1-195 partner): T1 sequence (P13498 1-195 partner)
Method: as §1

human NOX5 = target: T3, human NOX5 (Homo sapiens, UniProt Q96PH1); experiment: Human NOX5 isolated membranes, Amplex Red/horseradish peroxidase coupled assay; conditions: membrane-embedded, 40 μM NADPH; for IC50: read-out: IC50 on human NOXs, NOX5 (AMPLEX RED)
T3 construct: expressed in transfected cells; host or cells: HEK293 F cells, transient transfection (pEG BacMam vector); isolated membranes
T3 sequence (Q96PH1 1-719 isoform Q96PH1-4): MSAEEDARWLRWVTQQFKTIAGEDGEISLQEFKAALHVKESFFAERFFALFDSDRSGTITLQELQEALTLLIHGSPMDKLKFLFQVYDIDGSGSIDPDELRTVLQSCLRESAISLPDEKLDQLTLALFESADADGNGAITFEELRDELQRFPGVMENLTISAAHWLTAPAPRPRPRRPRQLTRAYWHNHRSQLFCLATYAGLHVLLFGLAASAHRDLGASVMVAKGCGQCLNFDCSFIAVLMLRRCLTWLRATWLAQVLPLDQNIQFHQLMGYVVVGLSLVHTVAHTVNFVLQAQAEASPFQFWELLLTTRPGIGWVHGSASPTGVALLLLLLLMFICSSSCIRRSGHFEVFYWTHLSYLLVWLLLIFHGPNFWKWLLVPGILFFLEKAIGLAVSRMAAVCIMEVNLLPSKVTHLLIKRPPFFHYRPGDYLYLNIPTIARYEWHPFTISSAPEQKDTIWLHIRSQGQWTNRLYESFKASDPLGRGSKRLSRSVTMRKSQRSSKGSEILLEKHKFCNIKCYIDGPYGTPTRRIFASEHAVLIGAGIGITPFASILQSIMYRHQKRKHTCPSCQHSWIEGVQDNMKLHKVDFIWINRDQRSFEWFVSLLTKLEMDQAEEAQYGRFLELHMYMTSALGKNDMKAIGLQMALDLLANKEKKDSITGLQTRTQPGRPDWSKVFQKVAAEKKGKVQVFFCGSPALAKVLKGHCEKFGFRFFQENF
Method: as §1

Row | IC50 (human NOX4) | IC50 (human NOX1) | IC50 (human NOX5) | IC50 on human NOXs, NOX1 (AMPLEX RED) (human NOX1) | IC50 on human NOXs, NOX5 (AMPLEX RED) (human NOX5) | Structure (SMILES)
1 | 21.8 ± 1.1 µM | 32.9 ± 2.9 µM | 6.5 ± 0.6 µM | – | – | CCCNC(=O)c1ccc(Cn2nnc3c(Sc4nc5ccccc5o4)ncnc32)cc1 [Compound 8a, (4-((7-Benzo[d]oxazol-2-yl-thio)-3H-[1,2,3]triazole[4,5-d]pyrimidin-3-yl)methyl)-N-(propyl)benzamide]
2 | 57.9 ± 7 µM | > 100 µM | > 100 µM | inactive | inactive | C#CCNC(=O)c1ccc(Cn2nnc3c(Sc4nc5ccccc5o4)ncnc32)cc1 [Compound 8b, (4-((7-Benzo[d]oxazol-2-yl-thio)-3H-[1,2,3]triazole[4,5-d]pyrimidin-3-yl)methyl)-N-(prop-2-in-1-yl)benzamide]
3 | 42 ± 16 µM | 22 ± 6.7 µM | 5.2 ± 0.1 µM | – | – | C#CCN(C)Cc1ccc(Cn2nnc3c(Sc4nc5ccccc5o4)ncnc32)cc1 [Compound 9a, N-(4-((7-(Benzo[d]oxazol-2-ylthio)-3H-[1,2,3]triazolo[4,5-d]pyrimidin-3-yl)methyl)benzyl)-N-methylprop-2-yn-1-amine]
